Data published in patent publication US20040006328A1, “Targeting of sebaceous follicles as a treatment of sebaceous gland disorders” (priority 1999, published 2004).

Key:
[1] = Methylene blue staining of sebaceous glands in ex vivo tissue (topical application, frozen sections, light microscopy); format: in vitro ADME, human
Protocol: (§1) Freshly excised human skin from a face-lift procedure was provided by a plastic surgeon. The skin originated from the periauricular area and the anterior hairline of a middle-aged fair-skinned person. The samples were stored at 4 ? C. overnight. On the day of experiment, the tissue was shaved with a razor and defatted by rubbing the surface with alcohol swabs for 1 minute. After cutting the skin in smaller pieces, the tissue was placed on saline-soaked gauzes. Methylene blue, a cationic hydrophilic dye was dissolved in distilled water, alcohol, and propylene glycol at a concentration of 5% and applied on the surface of the skin in a thick layer at 31 ? C. […] 5 mm-punch biopsies were performed and the samples were processed frozen sections.
There was minimal non-specific staining of the interstitial dermis.
as §1, with “5% and was mixed in a commercially available aqueous-based lotion (50 mL of dissolved dye in 500 mg of lotion) and applied on” for “5% and applied on”
Methylene blue dye was also administered into the sebaceous glands via Retina Gel® (Ortho Pharmaceuticals) as the carrier vehicle. Typically, a sufficient amount of methylene blue (50 mL of dissolved dye in 500 mg of gel) was combined with hydroxypropyl cellulose, butylated hydroxytoluene and alcohol and applied to the epidermis.

[2] = Localization of applied dyes in in-vitro human sebaceous skin samples by frozen sectioning and light microscopy; format: in vitro ADME
From the text: Fresh, in-vitro human sebaceous skin samples were used. Dye solutions and particle suspensions were applied to the samples at different concentration and in various vehicles, followed by localization of the dye by frozen sectioning and light microscopy. […] Apparently, almost any dye or suspension can be delivered to the upper infundibulum by direct solvent flow into the pore. Optimization of the concentration and solvent for MB and ICG can be determined by one skilled in the art. […] Physical means of increasing dye uptake into the infundibulum, including ultrasonication with a tissue dismembranator at low intensity, and a simple pressure-applicator intended to open the surface pores while providing a pressure gradient in favor of dye uptake is possible.

CN(C)c1ccc2nc3ccc(=[N+](C)C)cc-3sc2c1 [Methylene blue]
non-specific staining of the interstitial dermis (FIG. 9) [1]: minimal | non-specific staining of the interstitial dermis (FIG. 10) [1]: minimal | surface staining after removal of excess dye ([1]; 5% dye solution mixed in aqueous-based lotion (50 mL of dissolved dye in 500 mg of lotion), 31 C, 1 hour): lightly stained epidermis with accentuation of the staining in the follicular pores | staining in histologic sections (light microscopy, FIG. 10) ([1]; 5% dye solution mixed in aqueous-based lotion, 31 C, 1 hour, frozen sections): dense blue staining of the epidermis and of some sebaceous glands and entire hair follicles | staining in histologic sections (light microscopy, FIG. 9) ([1]; 5% in distilled water, alcohol and propylene glycol, 31 C, 1 hour, 5 mm punch biopsies, frozen sections): dense blue staining of the epidermis and of some sebaceous glands and entire hair follicles | surface staining after removal of excess dye ([1]; 5% in distilled water, alcohol and propylene glycol, thick layer at 31 C, 1 hour): lightly stained epidermis with accentuation of the staining in the follicular pores | penetration into the sebaceous glands (light microscopy) ([1]; Retina Gel as carrier vehicle (50 mL of dissolved dye in 500 mg of gel)): Penetration of the methylene blue dye into the sebaceous glands | increase of rate of uptake by iontophoresis [2]: at least one order of magnitude | entry of dye into the infundibulum ([2]; fresh in-vitro human sebaceous skin, dye solutions at different concentrations and in various vehicles): rapidly enter the infundibulum | staining of the sebaceous glands ([2]; fresh in-vitro human sebaceous skin, requiring several hours): deeply and selectively stain the sebaceous glands
